In ChEMBL document CHEMBL5579809, “Exploration of bromodomain ligand-linker conjugation sites for efficient CBP/p300 heterobifunctional degrader activity” (Bioorg Med Chem Lett, 2024):
Active and inactive are the calls of the source. The calls are words filed in the database; no cut-off is given here.

Legend:
[1] = target: Protein cereblon/Bromodomain-containing protein 4 (Homo sapiens) (UniProt O60885+Q96SW2); test: PROTAC activity at CRBN/HiBiT-tagged BRD4 in human HAP1 cells assessed as induction of BRD4 degradation measured over 24 hrs by luminescence based analysis; type: cell-based
Chain of Protein cereblon/Bromodomain-containing protein 4 (Homo sapiens) (Q96SW2 whole entry, looked up, other chains not shown): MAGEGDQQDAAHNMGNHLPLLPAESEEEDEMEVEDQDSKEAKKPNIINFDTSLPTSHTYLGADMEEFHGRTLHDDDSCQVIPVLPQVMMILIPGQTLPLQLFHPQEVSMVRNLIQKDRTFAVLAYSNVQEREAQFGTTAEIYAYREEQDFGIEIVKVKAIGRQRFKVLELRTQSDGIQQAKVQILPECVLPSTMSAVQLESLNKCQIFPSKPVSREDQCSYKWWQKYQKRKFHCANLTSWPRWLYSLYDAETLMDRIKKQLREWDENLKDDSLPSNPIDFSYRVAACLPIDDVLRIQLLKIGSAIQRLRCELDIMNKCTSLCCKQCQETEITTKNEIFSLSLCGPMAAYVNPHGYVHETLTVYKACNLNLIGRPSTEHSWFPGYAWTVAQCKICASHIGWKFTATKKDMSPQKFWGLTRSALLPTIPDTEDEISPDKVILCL

[2] = target: T1, Protein cereblon/CREB-binding protein (Homo sapiens) (UniProt Q92793+Q96SW2); test: Binding affinity to recombinant CRBN/CBP bromodomain (unknown origin) assessed as ternary complex formation at 10 to 100 nM by Alphascreen-based proximity assay; type: protein assay; conditions: dose 10-100 nM
[3] = target: T2, Protein cereblon/Histone acetyltransferase p300 (Homo sapiens) (UniProt Q09472+Q96SW2); test: PROTAC activity at CRBN/HiBiT-tagged p300 in human HAP1 cells assessed as induction of p300 degradation by measuring degradation rate at 10 nM measured over 24 hrs by luminescence based analysis; type: cell-based
T2 sequence (Q09472 2-2414 limits assumed): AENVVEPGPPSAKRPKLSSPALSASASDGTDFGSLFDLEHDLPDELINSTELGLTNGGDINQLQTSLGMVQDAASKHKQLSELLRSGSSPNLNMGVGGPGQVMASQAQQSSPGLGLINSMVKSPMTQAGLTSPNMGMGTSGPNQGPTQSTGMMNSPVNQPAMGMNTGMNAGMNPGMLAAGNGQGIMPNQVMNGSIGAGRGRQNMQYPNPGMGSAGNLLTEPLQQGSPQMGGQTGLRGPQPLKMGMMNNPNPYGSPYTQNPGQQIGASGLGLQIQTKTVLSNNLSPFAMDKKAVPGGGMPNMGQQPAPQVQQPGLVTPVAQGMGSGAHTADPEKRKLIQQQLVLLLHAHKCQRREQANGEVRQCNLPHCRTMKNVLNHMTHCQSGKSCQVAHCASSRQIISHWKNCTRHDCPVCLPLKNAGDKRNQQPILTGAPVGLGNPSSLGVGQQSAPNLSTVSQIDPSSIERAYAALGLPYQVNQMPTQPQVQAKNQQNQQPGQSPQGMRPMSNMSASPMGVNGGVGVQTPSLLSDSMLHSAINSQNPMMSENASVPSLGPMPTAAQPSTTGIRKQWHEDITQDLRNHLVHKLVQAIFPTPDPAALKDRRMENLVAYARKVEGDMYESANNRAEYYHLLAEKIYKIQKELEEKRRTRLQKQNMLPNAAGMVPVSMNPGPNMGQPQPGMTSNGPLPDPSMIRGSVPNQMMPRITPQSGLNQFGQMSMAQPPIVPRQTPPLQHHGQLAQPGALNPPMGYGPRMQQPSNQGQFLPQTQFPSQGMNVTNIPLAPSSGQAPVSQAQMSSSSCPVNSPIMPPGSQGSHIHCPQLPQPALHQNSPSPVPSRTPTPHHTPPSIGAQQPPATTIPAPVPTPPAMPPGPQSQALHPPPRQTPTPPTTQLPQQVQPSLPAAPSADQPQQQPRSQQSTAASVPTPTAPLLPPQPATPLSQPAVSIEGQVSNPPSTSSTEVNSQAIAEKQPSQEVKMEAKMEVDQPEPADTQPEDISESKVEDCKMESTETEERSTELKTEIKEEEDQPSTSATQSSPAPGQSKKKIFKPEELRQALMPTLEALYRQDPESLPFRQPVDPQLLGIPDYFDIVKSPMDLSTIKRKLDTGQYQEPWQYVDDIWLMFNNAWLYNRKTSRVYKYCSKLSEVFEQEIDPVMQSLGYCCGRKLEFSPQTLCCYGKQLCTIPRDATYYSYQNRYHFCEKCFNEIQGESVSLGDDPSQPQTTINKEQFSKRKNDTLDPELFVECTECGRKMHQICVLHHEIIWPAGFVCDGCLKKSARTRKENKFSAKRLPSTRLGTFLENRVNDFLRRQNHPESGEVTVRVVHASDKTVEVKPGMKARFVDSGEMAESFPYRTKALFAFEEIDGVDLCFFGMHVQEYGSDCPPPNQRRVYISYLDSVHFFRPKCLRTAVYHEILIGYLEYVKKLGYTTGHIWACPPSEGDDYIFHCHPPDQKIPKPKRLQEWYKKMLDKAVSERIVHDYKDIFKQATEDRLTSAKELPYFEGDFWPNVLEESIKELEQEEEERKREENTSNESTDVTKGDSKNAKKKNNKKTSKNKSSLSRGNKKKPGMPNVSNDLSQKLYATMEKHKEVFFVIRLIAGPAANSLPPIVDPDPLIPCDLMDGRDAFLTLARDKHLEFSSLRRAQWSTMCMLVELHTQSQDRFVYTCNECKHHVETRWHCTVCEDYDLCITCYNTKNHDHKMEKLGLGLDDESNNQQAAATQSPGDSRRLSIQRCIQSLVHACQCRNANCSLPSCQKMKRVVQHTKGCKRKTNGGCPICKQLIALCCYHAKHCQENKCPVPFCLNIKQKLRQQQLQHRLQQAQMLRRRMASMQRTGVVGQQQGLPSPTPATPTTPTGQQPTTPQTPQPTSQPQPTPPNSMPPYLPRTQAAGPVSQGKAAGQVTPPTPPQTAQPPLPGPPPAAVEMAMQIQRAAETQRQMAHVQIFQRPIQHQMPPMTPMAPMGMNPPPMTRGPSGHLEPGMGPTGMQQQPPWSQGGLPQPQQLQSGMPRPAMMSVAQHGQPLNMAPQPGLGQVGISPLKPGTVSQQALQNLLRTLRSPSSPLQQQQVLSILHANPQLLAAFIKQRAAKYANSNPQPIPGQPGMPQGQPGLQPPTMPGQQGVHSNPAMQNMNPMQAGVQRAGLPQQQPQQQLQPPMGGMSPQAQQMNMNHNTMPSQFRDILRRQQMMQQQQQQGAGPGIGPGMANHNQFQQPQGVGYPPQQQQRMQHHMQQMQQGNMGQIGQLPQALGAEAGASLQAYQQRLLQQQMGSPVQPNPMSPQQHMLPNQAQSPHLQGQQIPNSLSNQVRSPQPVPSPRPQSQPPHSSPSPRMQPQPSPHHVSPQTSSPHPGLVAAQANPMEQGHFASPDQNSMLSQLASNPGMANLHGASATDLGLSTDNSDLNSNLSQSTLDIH
T2 sequence (Q96SW2 whole entry partner): as the sequence (Q96SW2 whole entry, looked up, other chains not shown) above

[4] = target: T2, Protein cereblon/Histone acetyltransferase p300 (Homo sapiens); test: PROTAC activity at CRBN/HiBiT-tagged p300 in human HAP1 cells assessed as induction of p300 degradation by measuring maximal efficacy at 10 nM measured over 24 hrs by luminescence based analysis relative to control; type: cell-based
[5] = target: T2, Protein cereblon/Histone acetyltransferase p300 (Homo sapiens); test: PROTAC activity at CRBN/HiBiT-tagged p300 in human HAP1 cells assessed as total cumulative degradation by measuring AUC at 1 nM measured over 24 hrs by luminescence based analysis; type: cell-based
[6] = target: T2, Protein cereblon/Histone acetyltransferase p300 (Homo sapiens); test: PROTAC activity at CRBN/HiBiT-tagged p300 in human HAP1 cells assessed as induction of p300 degradation by measuring degradation rate at 100 nM measured over 24 hrs by luminescence based analysis; type: cell-based
[7] = target: T2, Protein cereblon/Histone acetyltransferase p300 (Homo sapiens); test: PROTAC activity at CRBN/HiBiT-tagged p300 in human HAP1 cells assessed as total cumulative degradation by measuring AUC at 100 nM measured over 24 hrs by luminescence based analysis; type: cell-based
[8] = target: T1, Protein cereblon/CREB-binding protein (Homo sapiens); test: PROTAC activity at CRBN/HiBiT-tagged CBP in human HAP1 cells assessed as total cumulative degradation by measuring AUC at 1000 nM measured over 24 hrs by luminescence based analysis; type: cell-based
[9] = target: T1, Protein cereblon/CREB-binding protein (Homo sapiens); test: PROTAC activity at CRBN/HiBiT-tagged CBP in human HAP1 cells assessed as total cumulative degradation by measuring AUC at 1 nM measured over 24 hrs by luminescence based analysis; type: cell-based
[10] = target: T2, Protein cereblon/Histone acetyltransferase p300 (Homo sapiens); test: PROTAC activity at CRBN/HiBiT-tagged p300 in human HAP1 cells assessed as total cumulative degradation by measuring AUC at 10 nM measured over 24 hrs by luminescence based analysis; type: cell-based
[11] = target: T1, Protein cereblon/CREB-binding protein (Homo sapiens); test: PROTAC activity at CRBN/HiBiT-tagged CBP in human HAP1 cells assessed as total cumulative degradation by measuring AUC at 100 nM measured over 24 hrs by luminescence based analysis; type: cell-based
[12] = target: T2, Protein cereblon/Histone acetyltransferase p300 (Homo sapiens); test: Binding affinity to recombinant CRBN/p300 bromodomain (unknown origin) assessed as ternary complex formation at 10 to 100 nM by Alphascreen-based proximity assay; type: protein assay; conditions: dose 10-100 nM
[13] = target: T2, Protein cereblon/Histone acetyltransferase p300 (Homo sapiens); test: PROTAC activity at CRBN/HiBiT-tagged p300 in human HAP1 cells assessed as total cumulative degradation by measuring AUC at 0.1 nM measured over 24 hrs by luminescence based analysis; type: cell-based
[14] = target: T2, Protein cereblon/Histone acetyltransferase p300 (Homo sapiens); test: PROTAC activity at CRBN/HiBiT-tagged p300 in human HAP1 cells assessed as induction of p300 degradation by measuring maximal efficacy at 100 nM measured over 24 hrs by luminescence based analysis relative to control; type: cell-based
[15] = target: T2, Protein cereblon/Histone acetyltransferase p300 (Homo sapiens); test: PROTAC activity at CRBN/HiBiT-tagged p300 in human HAP1 cells assessed as total cumulative degradation by measuring AUC at 0.01 nM measured over 24 hrs by luminescence based analysis; type: cell-based
[16] = target: T1, Protein cereblon/CREB-binding protein (Homo sapiens); test: PROTAC activity at CRBN/HiBiT-tagged CBP in human HAP1 cells assessed as total cumulative degradation by measuring AUC at 0.1 nM measured over 24 hrs by luminescence based analysis; type: cell-based
[17] = target: T1, Protein cereblon/CREB-binding protein (Homo sapiens); test: PROTAC activity at CRBN/HiBiT-tagged CBP in human HAP1 cells assessed as total cumulative degradation by measuring AUC at 0.01 nM measured over 24 hrs by luminescence based analysis; type: cell-based
[18] = target: T1, Protein cereblon/CREB-binding protein (Homo sapiens); test: PROTAC activity at CRBN/HiBiT-tagged CBP in human HAP1 cells assessed as total cumulative degradation by measuring AUC at 10 nM measured over 24 hrs by luminescence based analysis; type: cell-based
[19] = target: T2, Protein cereblon/Histone acetyltransferase p300 (Homo sapiens); test: PROTAC activity at CRBN/HiBiT-tagged p300 in human HAP1 cells assessed as total cumulative degradation by measuring AUC at 1000 nM measured over 24 hrs by luminescence based analysis; type: cell-based
[20] = target: T2, Protein cereblon/Histone acetyltransferase p300 (Homo sapiens); test: PROTAC activity at CRBN/HiBiT-tagged p300 in human HAP1 cells assessed as induction of p300 degradation by measuring maximal efficacy at 1 nM measured over 24 hrs by luminescence based analysis relative to control; type: cell-based
[21] = target: T1, Protein cereblon/CREB-binding protein (Homo sapiens); test: PROTAC activity at CRBN/HiBiT-tagged CBP in human HAP1 cells assessed as induction of CBP degradation by measuring maximal efficacy at 1 nM measured over 24 hrs by luminescence based analysis relative to control; type: cell-based
[22] = target: T1, Protein cereblon/CREB-binding protein (Homo sapiens); test: PROTAC activity at CRBN/HiBiT-tagged CBP in human HAP1 cells assessed as induction of CBP degradation by measuring degradation rate at 10 nM measured over 24 hrs by luminescence based analysis; type: cell-based
[23] = target: T1, Protein cereblon/CREB-binding protein (Homo sapiens); test: PROTAC activity at CRBN/HiBiT-tagged CBP in human HAP1 cells assessed as induction of CBP degradation by measuring degradation rate at 100 nM measured over 24 hrs by luminescence based analysis; type: cell-based
[24] = target: T1, Protein cereblon/CREB-binding protein (Homo sapiens); test: PROTAC activity at CRBN/HiBiT-tagged CBP in human HAP1 cells assessed as induction of CBP degradation by measuring maximal efficacy at 0.1 nM measured over 24 hrs by luminescence based analysis relative to control; type: cell-based
[25] = target: T1, Protein cereblon/CREB-binding protein (Homo sapiens); test: PROTAC activity at CRBN/HiBiT-tagged CBP in human HAP1 cells assessed as induction of CBP degradation by measuring maximal efficacy at 100 nM measured over 24 hrs by luminescence based analysis relative to control; type: cell-based
[26] = target: T1, Protein cereblon/CREB-binding protein (Homo sapiens); test: PROTAC activity at CRBN/HiBiT-tagged CBP in human HAP1 cells assessed as induction of CBP degradation by measuring maximal efficacy at 10 nM measured over 24 hrs by luminescence based analysis relative to control; type: cell-based
[27] = target: T2, Protein cereblon/Histone acetyltransferase p300 (Homo sapiens); test: PROTAC activity at CRBN/HiBiT-tagged p300 in human HAP1 cells assessed as induction of p300 degradation by measuring degradation rate at 1000 nM measured over 24 hrs by luminescence based analysis; type: cell-based
[28] = target: T1, Protein cereblon/CREB-binding protein (Homo sapiens); test: PROTAC activity at CRBN/HiBiT-tagged CBP in human HAP1 cells assessed as induction of CBP degradation by measuring degradation rate at 1000 nM measured over 24 hrs by luminescence based analysis; type: cell-based
[29] = target: T2, Protein cereblon/Histone acetyltransferase p300 (Homo sapiens); test: PROTAC activity at CRBN/HiBiT-tagged p300 in human HAP1 cells assessed as induction of p300 degradation by measuring degradation rate at 1 nM measured over 24 hrs by luminescence based analysis; type: cell-based
[30] = target: T1, Protein cereblon/CREB-binding protein (Homo sapiens); test: PROTAC activity at CRBN/HiBiT-tagged CBP in human HAP1 cells assessed as induction of CBP degradation by measuring degradation rate at 1 nM measured over 24 hrs by luminescence based analysis; type: cell-based
[31] = target: T2, Protein cereblon/Histone acetyltransferase p300 (Homo sapiens); test: PROTAC activity at CRBN/HiBiT-tagged p300 in human HAP1 cells assessed as induction of p300 degradation by measuring maximal efficacy at 1000 nM measured over 24 hrs by luminescence based analysis relative to control; type: cell-based
[32] = target: T1, Protein cereblon/CREB-binding protein (Homo sapiens); test: PROTAC activity at CRBN/HiBiT-tagged CBP in human HAP1 cells assessed as induction of CBP degradation by measuring maximal efficacy at 1000 nM measured over 24 hrs by luminescence based analysis relative to control; type: cell-based

CNC(=O)N1CCc2c(c(N3CCCc4cc(-c5cnn(CC(=O)NCCOCCOCCOCCOCCOCCOCCNc6ccc7c(c6)C(=O)N(C6CCC(=O)NC6=O)C7=O)c5)c(C(F)F)cc43)nn2C2CCOCC2)C1 (stereo not given)
Activity [1]: inactive | Activity [2]: Active | Activity [3]: 0.006 h⁻¹ | Emax [4]: 19% | AUC [5]: 26.1 | Activity [6]: 0.02 h⁻¹ | AUC [7]: 22.4 | AUC [8]: 25 | AUC [9]: 23.6 | AUC [10]: 22.7 | AUC [11]: 23.2 | Activity [12]: Active | AUC [13]: 27 | Emax [14]: 21% | AUC [15]: 27.6 | AUC [16]: 22.8 | AUC [17]: 21.6 | AUC [18]: 23 | AUC [19]: 26.1

CNC(=O)N1CCc2c(c(N3CCCc4cc(-c5cnn(C)c5)c(C(F)F)cc43)nn2C2CCN(C(=O)CCOCCOCCOCCOCCOCCOCCNc3ccc4c(c3)C(=O)N(C3CCC(=O)NC3=O)C4=O)CC2)C1 (stereo not given)
Activity [1]: inactive | Emax [20]: 32% | Emax [21]: 33% | Activity [22]: 0.68 h⁻¹ | Activity [2]: Active | Activity [23]: 0.79 h⁻¹ | Activity [3]: 0.49 h⁻¹ | Emax [4]: 68% | AUC [5]: 18.6 | Activity [6]: 0.74 h⁻¹ | Emax [24]: 8.6% | AUC [7]: 5.2 | Emax [25]: 86% | AUC [8]: 6.6 | Emax [26]: 72% | AUC [9]: 17.8 | AUC [10]: 9.3 | AUC [11]: 4.7 | Activity [27]: 0.46 h⁻¹ | Activity [28]: 0.42 h⁻¹ | Activity [29]: 0.19 h⁻¹ | Activity [30]: 0.27 h⁻¹ | Activity [12]: Active | Emax [31]: 83% | AUC [13]: 26.4 | Emax [14]: 83% | AUC [15]: 27.3 | AUC [16]: 24.2 | AUC [17]: 26.3 | AUC [18]: 8.1 | AUC [19]: 6 | Emax [32]: 81%

CNC(=O)N1CCc2c(c(N3CCN(C(=O)NCCOCCNc4ccc5c(c4)C(=O)N(C4CCC(=O)NC4=O)C5=O)c4cc(-c5cnn(C)c5)c(C(F)(F)F)cc43)nn2C2CCOCC2)C1 (stereo not given)
Activity [1]: inactive | AUC [5]: 26.9 | AUC [7]: 26.2 | AUC [8]: 21.4 | AUC [9]: 23.9 | AUC [10]: 27 | AUC [11]: 23.6 | Activity [27]: 0.02 h⁻¹ | Activity [28]: 0.036 h⁻¹ | Emax [31]: 20% | AUC [13]: 27.5 | AUC [15]: 27.5 | AUC [16]: 25 | AUC [17]: 23.4 | AUC [18]: 24.9 | AUC [19]: 22.3 | Emax [32]: 26%

CNC(=O)N1CCc2c(c(N3CCN(C(=O)NCCOCCOCCOCCOCCNc4ccc5c(c4)C(=O)N(C4CCC(=O)NC4=O)C5=O)c4cc(-c5cnn(C)c5)c(C(F)(F)F)cc43)nn2C2CCOCC2)C1 (stereo not given)
Activity [1]: inactive | Activity [2]: Active | AUC [5]: 27.7 | AUC [7]: 25.5 | AUC [8]: 24.2 | AUC [9]: 24.7 | AUC [10]: 26.9 | AUC [11]: 24.6 | Activity [27]: 0.009 h⁻¹ | Activity [12]: Active | Emax [31]: 26% | AUC [13]: 27.3 | AUC [15]: 27.2 | AUC [16]: 24.4 | AUC [17]: 24.1 | AUC [18]: 25.1 | AUC [19]: 22.1
